According to the NIST ThermoML archive (doi:10.1021/acs.jced.8b00692):

Test: xn = mol fraction of the nth substance listed
Conditions: 102 kPa, Liquid; for viscosity: Concentric cylinders viscometry; for speed of sound: Frequency=3 MHz, Single path-length method; for mass density: Vibrating tube method

CCCCCCCCC1CCCCC1 [octylcyclohexane] + CCCCCCCCCCCCCCCC
Conditions | mass density [kg/m3] | speed of sound [m/s] | viscosity [mPa·s]
293.15 K, x1 = 0.2001 | 780.29 | 1361.6 | 3.46
293.15 K, x1 = 0.3999 | 787.74 | 1366.8 | 3.46
293.15 K, x1 = 0.5002 | 791.67 | 1369.7 | 3.46
293.15 K, x1 = 0.6009 | 795.83 | 1372.6 | 3.44
293.15 K, x1 = 0.8006 | 804.62 | 1378.6 | 3.46
293.15 K, x1 = 1 | 814.14 | 1387 | 3.52
303.15 K, x1 = 0.2001 | 773.36 | 1324.4 | 2.75
303.15 K, x1 = 0.3999 | 780.82 | 1329.6 | 2.74
303.15 K, x1 = 0.5002 | 784.77 | 1332.1 | 2.75
303.15 K, x1 = 0.6009 | 788.93 | 1335 | 2.74
303.15 K, x1 = 0.8006 | 797.71 | 1341.3 | 2.76
303.15 K, x1 = 1 | 807.22 | 1349.1 | 2.79
313.15 K, x1 = 0.2001 | 766.44 | 1287.9 | 2.24
313.15 K, x1 = 0.3999 | 773.91 | 1293 | 2.23
313.15 K, x1 = 0.5002 | 777.87 | 1295.4 | 2.24
313.15 K, x1 = 0.6009 | 782.03 | 1298.3 | 2.23
313.15 K, x1 = 0.8006 | 790.79 | 1304.6 | 2.24
313.15 K, x1 = 1 | 800.29 | 1312.1 | 2.27
323.15 K, x1 = 0.2001 | 759.53 | 1252 | 1.85
323.15 K, x1 = 0.3999 | 767 | 1257.2 | 1.84
323.15 K, x1 = 0.5002 | 770.97 | 1259.5 | 1.85
323.15 K, x1 = 0.6009 | 775.12 | 1262.4 | 1.85
323.15 K, x1 = 0.8006 | 783.86 | 1268.6 | 1.85
323.15 K, x1 = 1 | 793.36 | 1275.9 | 1.88
333.15 K, x1 = 0.2001 | 752.62 | 1217.1 | 1.56
333.15 K, x1 = 0.3999 | 760.08 | 1222.1 | 1.55
333.15 K, x1 = 0.5002 | 764.05 | 1224.6 | 1.56
333.15 K, x1 = 0.6009 | 768.2 | 1227.3 | 1.56
333.15 K, x1 = 0.8006 | 776.93 | 1233.7 | 1.56
333.15 K, x1 = 1 | 786.42 | 1240.5 | 1.58
343.15 K, x1 = 0.2001 | 745.7 | – | 1.34
343.15 K, x1 = 0.3999 | 753.2 | – | 1.33
343.15 K, x1 = 0.5002 | 757.2 | – | 1.35
343.15 K, x1 = 0.6009 | 761.3 | – | 1.33
343.15 K, x1 = 0.8006 | 770 | – | 1.34
343.15 K, x1 = 1 | 779.5 | – | 1.36
353.15 K, x1 = 0.2001 | 738.8 | – | 1.15
353.15 K, x1 = 0.3999 | 746.3 | – | 1.15
353.15 K, x1 = 0.5002 | 750.2 | – | 1.15
353.15 K, x1 = 0.6009 | 754.3 | – | 1.15
353.15 K, x1 = 0.8006 | 763.1 | – | 1.16
353.15 K, x1 = 1 | 772.5 | – | 1.16
363.15 K, x1 = 0.2001 | 731.8 | – | 1.02
363.15 K, x1 = 0.3999 | 739.3 | – | 1
363.15 K, x1 = 0.5002 | 743.3 | – | 1.03
363.15 K, x1 = 0.6009 | 747.4 | – | 1.01
363.15 K, x1 = 0.8006 | 756.1 | – | 1.01
363.15 K, x1 = 1 | 765.5 | – | 1.04
373.15 K, x1 = 0.2001 | 724.8 | – | 0.887
373.15 K, x1 = 0.3999 | 732.3 | – | 0.889
373.15 K, x1 = 0.5002 | 736.3 | – | 0.89
373.15 K, x1 = 0.6009 | 740.4 | – | 0.895
373.15 K, x1 = 0.8006 | 749.1 | – | 0.897
373.15 K, x1 = 1 | 758.5 | – | 0.899

CCCCCC1CCCCC1 [pentylcyclohexane] + CCCCCCCCCCCCCCCC
Conditions | mass density [kg/m3] | speed of sound [m/s] | viscosity [mPa·s]
293.15 K, x1 = 0.2004 | 777.53 | 1354.6 | 3.1
293.15 K, x1 = 0.4 | 782.39 | 1351.9 | 2.74
293.15 K, x1 = 0.4999 | 785.18 | 1350.6 | 2.56
293.15 K, x1 = 0.5999 | 788.23 | 1349.4 | 2.38
293.15 K, x1 = 0.8006 | 795.35 | 1347.2 | 2.03
293.15 K, x1 = 1 | 804.11 | 1345.9 | 1.7
303.15 K, x1 = 0.2004 | 770.57 | 1317.2 | 2.49
303.15 K, x1 = 0.4 | 775.39 | 1314.4 | 2.22
303.15 K, x1 = 0.4999 | 778.15 | 1313 | 2.08
303.15 K, x1 = 0.5999 | 781.16 | 1311.6 | 1.95
303.15 K, x1 = 0.8006 | 788.18 | 1309 | 1.68
303.15 K, x1 = 1 | 796.8 | 1306.4 | 1.42
313.15 K, x1 = 0.2004 | 763.62 | 1280.5 | 2.04
313.15 K, x1 = 0.4 | 768.39 | 1277.6 | 1.83
313.15 K, x1 = 0.4999 | 771.11 | 1276 | 1.73
313.15 K, x1 = 0.5999 | 774.09 | 1274.5 | 1.61
313.15 K, x1 = 0.8006 | 781 | 1271.3 | 1.41
313.15 K, x1 = 1 | 789.47 | 1267.8 | 1.21
323.15 K, x1 = 0.2004 | 756.66 | 1244.5 | 1.7
323.15 K, x1 = 0.4 | 761.38 | 1241.4 | 1.54
323.15 K, x1 = 0.4999 | 764.07 | 1239.7 | 1.46
323.15 K, x1 = 0.5999 | 766.99 | 1237.9 | 1.37
323.15 K, x1 = 0.8006 | 773.8 | 1234.3 | 1.21
323.15 K, x1 = 1 | 782.12 | 1230.1 | 1.04
333.15 K, x1 = 0.2004 | 749.7 | 1209.3 | 1.44
333.15 K, x1 = 0.4 | 754.35 | 1206 | 1.31
333.15 K, x1 = 0.4999 | 757 | 1204.2 | 1.24
333.15 K, x1 = 0.5999 | 759.88 | 1202.3 | 1.18
333.15 K, x1 = 0.8006 | 766.57 | 1198 | 1.03
333.15 K, x1 = 1 | 774.74 | 1193.4 | 0.895
343.15 K, x1 = 0.2004 | 742.8 | – | 1.24
343.15 K, x1 = 0.4 | 747.4 | – | 1.14
343.15 K, x1 = 0.4999 | 749.9 | – | 1.08
343.15 K, x1 = 0.5999 | 752.9 | – | 1.03
343.15 K, x1 = 0.8006 | 759.4 | – | 0.916
343.15 K, x1 = 1 | 767.3 | – | 0.799
353.15 K, x1 = 0.2004 | 735.8 | – | 1.07
353.15 K, x1 = 0.4 | 740.3 | – | 0.985
353.15 K, x1 = 0.4999 | 742.8 | – | 0.937
353.15 K, x1 = 0.5999 | 745.7 | – | 0.903
353.15 K, x1 = 0.8006 | 752.2 | – | 0.809
353.15 K, x1 = 1 | 759.9 | – | 0.709
363.15 K, x1 = 0.2004 | 728.7 | – | 0.955
363.15 K, x1 = 0.4 | 733.2 | – | 0.884
363.15 K, x1 = 0.4999 | 735.6 | – | 0.843
363.15 K, x1 = 0.5999 | 738.5 | – | 0.805
363.15 K, x1 = 0.8006 | 744.8 | – | 0.724
363.15 K, x1 = 1 | 752.4 | – | 0.637
